# Source: ChEMBL document CHEMBL3507680, “University of Dundee, Gates Library screen for HepG2 cell viability”
# Assay: Human HepG2 cell viability assay in 384 well format
# Format: toxicity, cell-based
# Set-up: dose 125 nL, time 70.5 hour; cytotoxicity at 70.5 h: concentration not given beside the values
# Conditions: HepG2 cells, read-out: Inhibition
row,SMILES,cytotoxicity at 70.5 h [%]
1,CCc1nsc(N2CCCN(C(=O)c3ccsc3)CC2)n1,14
2,Cc1cc2c(cc1C)OC(C(=O)NCCNC(=O)C1CCCC1)C2 (stereo unspecified),-6.43
3,CC(=O)NC(CC(=O)Nc1ccc(C)cn1)c1ccccc1 (stereo unspecified),-6.79
4,CC/N=c1/c(NC(=O)C2CC2)c(O)oc2ccccc12,35.8
5,Cn1nccc1-c1cncc(C2CCCN(S(C)(=O)=O)C2)n1 (stereo unspecified),-7.56
6,C[S+]([O-])c1cccc(NC(=O)N(CCC#N)Cc2ccccn2)c1 (stereo unspecified),-12
7,COc1ccc2c(c1)CN(C)C(=O)CCN2CC(O)C(F)(F)F (stereo unspecified),11.9
8,COC[C@H]1CCCN1c1nccc(-c2cnn(-c3ccccc3C)c2)n1,-1.39
9,c1csc(CN2CCOCC3(CCN(C4CCOCC4)C3)C2)c1 (stereo unspecified),-16.8
10,CC(=O)N[C@@H]1CN(C(=O)c2cc3sccc3[nH]2)C[C@H]1c1ccc(C)o1,-3.33
11,CC1CCCCN1c1nc2c(c(=O)[nH]1)CCN(Cc1ccccc1F)C2 (stereo unspecified),-5.68
12,COc1ccc2c(ccn2CCC(=O)O)c1,27.9
13,CCn1cc(CN2CCC(c3[nH]ncc3S(C)(=O)=O)C2)cn1 (stereo unspecified),0.805
14,CC(C)(C)Cc1noc2ncc(C(=O)N3CCSCC3)cc12,-7.45
15,CS(=O)(=O)N1CCCN(CCCSCc2ccccc2)CC1,-8.27
16,CC(C)N(C)C(=O)C1CCN(Cc2cnc3ccccn23)CC1,-5.16
17,Cc1ncsc1CCN(C)Cc1cc2n(n1)CCN(S(C)(=O)=O)C2,-6.95
18,Cc1nc(CN(C)C2CCN(CCCc3ccccc3)C2)no1 (stereo unspecified),-2.23
19,O=c1oc(-c2ccc(F)cc2)nn1CN1CCSCC1,-15
20,CN(CC(=O)N1CCN(CC(C)(C)O)CC1)c1ccc(Cl)cn1,-17.3
21,CCS(=O)(=O)N1C[C@H]2CN(c3cnn(C)c3)C(=O)[C@H]2C1,-5.61

row,SMILES,cytotoxicity at 70.5 h [%]
1,c1cc(CNCc2cccc3c2OCCCO3)cc(Cn2cncn2)c1,-8.37
2,Cc1ncsc1C(=O)NC1CCN(Cc2cccc3c2OCCO3)CC1,-0.651
3,O=C(c1ccnn1COc1ccc(Cl)cc1)N1CCCC1,-1.93
4,CCc1ccc(C2CCCN2C(=O)NCC(=O)NCC(C)C)o1 (stereo unspecified),21.4
5,COc1ccccc1CN(Cc1cccc(C)c1)C(=O)[C@@H](N)CC(=O)O,8.65
6,O=C(CC1CCCC1)Nc1ccc(-n2cc(Br)cn2)nc1,-2.32
7,O=C(C1CCC1)N1C(CN2CCOCC2)[C@]2(O)CC[C@H]1CC2 (stereo partly specified),13.5
8,CSCC[C@@H](CO)NC(=O)c1sc(-c2ccccc2Cl)nc1C,-16.5
9,CC(=O)N(C)Cc1cccc(NC(=O)c2cnn(C)c2C)c1,22
10,CCCOCC1CCN(C(=O)c2cnc(-c3csc(C)n3)nc2O)C1 (stereo unspecified),-8.59
11,O=C1COc2c(cccc2C(=O)N2CCCCC2Cn2cccn2)N1 (stereo unspecified),-4.26
12,CN(Cc1cccc(O)c1)Cc1cnn(C)c1,-4.55
13,Cc1nc(C)n(CC2CCCN(Cc3nc(C)c(C)o3)C2)n1 (stereo unspecified),13.2
14,CCc1nnc(Nc2cc(C)nc(C3CN(C(=O)C(C)C)CCO3)c2)s1 (stereo unspecified),9.87
15,O=C(NCCCn1cncn1)c1ccc(-c2ccco2)[nH]c1=O,-3.92
16,CCC(=O)Nc1cc(Cl)ccc1C(=O)N(C)Cc1noc(CC)n1,-5.2
17,Cc1cc(NC(=O)NCC(C)O)n(C)n1 (stereo unspecified),0.0779
18,CC(C)c1cc(N2CCC(CCC(=O)NC3CC3)CC2)n2nccc2n1,-10.7
19,CCOC(C)c1noc(CN2CCN(Cc3cccc(F)c3)CC2)n1 (stereo unspecified),-7.41
20,CCS(=O)(=O)CCNC(=O)C1(c2cccc(Cl)c2)CC1,15.5
21,CCN(C)S(=O)(=O)N1CCC(C(O)c2ccc(Cl)cc2)CC1 (stereo unspecified),-8.06

row,SMILES,cytotoxicity at 70.5 h [%]
1,CCn1cnnc1CNC(=O)c1ccc(Cl)cc1F,-4.7
2,CC(C)n1nc(CN(C)C)c2c1CN(CC1CC1)CC2,2.39
3,Cc1cnc(C(C)(C)NC(=O)NCc2cccnc2OC(C)C)s1,2.79
4,c1cnc(N2CCCC3(CCN(CC4CCOC4)CC3)C2)nc1 (stereo unspecified),19
5,Cc1ccccc1CC(C)NCc1c(C)nn(C)c1N1CCOCC1 (stereo unspecified),-0.684
6,CNc1ncc(CN(C)C(=O)c2cccc(-n3cccn3)c2)cn1,-6.94
7,CCCc1cncnc1N1CCC2(CCC(=O)N(CCOC)C2)CC1,13.2
8,CCN(Cc1nc(C)no1)C(=O)C1CC(=O)N(Cc2ccccn2)C1 (stereo unspecified),-13.9
9,CC(=O)C(Cc1ccccc1)NC(=O)CSc1nncn1C (stereo unspecified),-5.49
10,CCc1cc(CNC(=O)NCC(c2ccco2)N2CCCC2)[nH]n1 (stereo unspecified),-3.15
11,CSc1ccc(NS(=O)(=O)c2cnn(C)c2)cn1,-1.76
12,COc1cccc(S(=O)(=O)NC(=O)C2CC(c3ccccc3)=NO2)c1 (stereo unspecified),-9.7
13,CC(C)(C)c1n[nH]c(C2CN(C(=O)c3cc(C4CC4)on3)CCO2)n1 (stereo unspecified),28.3
14,O=c1cc(Cn2ccnc2)nc2n1CCCN(S(=O)(=O)C1CC1)C2,-11.3
15,CC(C)N1CC2(CCC1=O)CCN(c1ccnc3ccccc13)CC2,41.8
16,Cc1cnn(CC(C)Nc2nc(C)cc(N(C)C)n2)c1 (stereo unspecified),-6.1
17,CN1CCN(CC2CC2)C(=O)C12CCN(C(=O)c1ccnnc1)CC2,-5.46
18,Cc1cc(Nc2cnccn2)cc(C2CCCN2)n1 (stereo unspecified),12.2
19,CC(=O)c1cccc(OCCCC(=O)NCC2CCCN2C)c1 (stereo unspecified),7.09
20,CC(Cn1cccn1)NC(=O)Nc1nnc(C2CC2)s1 (stereo unspecified),-11
21,Cc1cnc(C(=O)N2CCCC(Cn3cc(CC(C)C)nn3)C2)cn1 (stereo unspecified),-8.09

row,SMILES,cytotoxicity at 70.5 h [%]
1,CCOCCCNCc1cc(O)c2cc(C)ccc2n1,22.7
2,COc1ccc(Cl)cc1S(=O)(=O)N1C[C@@H]2CC[C@H](C1)N(C)C2=O,6.39
3,CC(C)n1cnc2c1C(C(=O)NCCC#N)N(Cc1ccccc1)CC2 (stereo unspecified),-16.7
4,CC(C(=O)NCC1CCCCC1)S(=O)(=O)Cc1csc(-c2cccs2)n1 (stereo unspecified),-9.36
5,CCOc1ncccc1CNC(=O)c1cccc(C)n1,-17.3
6,CCc1cc(NCCCN(C)C2CCCC2)ncn1,-11.3
7,Clc1ccccc1Cn1cc(CNC2CCc3ncnn3C2)cn1 (stereo unspecified),-0.86
8,Cn1cccc1C(=O)NC[C@H]1C[C@@H]2CN(C(=O)c3ccno3)C[C@H]2O1,-9.62
9,O=C1CN(C(=O)CNC(CC(F)(F)F)c2ccc(F)cc2)CCN1 (stereo unspecified),-55.7
10,CC(O)CNC(=O)c1nc(Cc2c(Cl)cccc2Cl)no1 (stereo unspecified),-4.9
11,COc1cc(F)cc2sc(NC(=O)COCC3CCCO3)nc12 (stereo unspecified),13.2
12,CN(C)[C@@H]1CCN(C(=O)C2CCOCC2)[C@H]1Cc1ccncc1,6.4
13,Cc1ccc(CN2CC(O)CN(C(=O)OCC(C)C)CC2=O)cc1 (stereo unspecified),-4.78
14,COc1ncc(C)cc1NC(=O)COCC(F)(F)F,2.73
15,CSC1=Nc2c(cnn2-c2cccc(Cl)c2)C2=NCCCN12,-12
16,Cn1cnc2c1CCN(CC(O)c1ccc(S(C)(=O)=O)cc1)C2 (stereo unspecified),-8.26
17,COC1CCN(C(=O)Cn2ncc(N3CCCCC3)cc2=O)C1 (stereo unspecified),-2.54
18,CC(C)NC(=O)N1CCC2(CC1)CC[C@@]1(C(=O)N(C)C)CN(C)C[C@@H]21,-11.9
